Laboratory results published in paper PMC3355305, “Localized Dimerization and Nucleoid Binding Drive Gradient Formation by the Bacterial Cell Division Inhibitor MipZ” (Molecular Cell, 2012).

How the values were obtained:
MipZ K13A = experiment: Transient kinetic analysis of mant nucleotide binding to MipZ K13A; set-up: species or system Caulobacter crescentus; conditions: for Kd: calculated KD = koff/kon
Excerpt: (§1) Once released from the dimeric complex, MipZ monomers must undergo nucleotide exchange to enter the next reaction cycle (Figure 2A). To clarify the requirements for the exchange reaction, we studied the nucleotide binding kinetics of MipZ by monitoring its interaction with methylanthraniloyl (mant)-labeled ADP and ATP analogs (Figure S3). Since the mant group blocks dimer formation, our measurements specifically focused on the initial nucleotide-binding step without interference from subsequent reactions.
(§2) Figure S3. Steady-state and transient kinetic analysis of nucleotide binding to MipZ, Related to Table 2.
(§3) (A) Fluorescence emission spectra of mant-ATP. MipZ (1 µM) and/or mant-ATP (60 µM) were mixed in buffer BC containing no (+ Mg2+) or 10 mM (- Mg2+) EDTA. Emission spectra were recorded in a PC1 photon-counting spectrofluorimeter (ISS) using fluorescence resonance energy transfer (FRET) and an excitation wavelength of 290 nm.
(§4) (B) Association of MipZ with mant nucleotides.
(§5) (data not shown), necessitating the use of ADP and ATP analogues that carried a fluorescent methylanthraniloyl (mant) group attached to the 2'- or 3'-hydroxy group of the ribose moiety. Due to the bulkiness of the mant group and a critical role of these hydroxy groups in MipZ dimerization, the modified nucleotides are predicted to block dimer formation, consistent with their failure to be hydrolyzed by MipZ or mediate MipZ self-association in the SPR assay (data not shown). This circumstance allowed us to focus the measurements on the initial nucleotide binding step without interference from subsequent reactions.
(§6) Interaction of the mant group with the protein surface led to a marked increase in fluorescence (panel A). Consistent with the easy accessibility of the nucleotide-binding site and the lack of major conformational changes, the transients recorded after rapid mixing of MipZ with mant nucleotides could be fitted to single-exponential equations, indicating single-step binding reactions.
(§7) Shown is a typical curve representing the change in mant fluorescence upon binding of mant-ATP (30 µM) to MipZ (1 µM).
(§8) Fitting of the data yielded a pseudo-first order rate constant (kobs) of 4.7 s-1.
(§9) (C) Determination of the second-order association rate constants (kon). The pseudo-first order rate constants for the association of […]
(§10) determining the second-order rate constant of the association reaction. Shown is a representative graph in which the kobs values measured for mant-ATP were plotted against the corresponding mant-ATP concentrations. Fitting of the data to the linear function kobs=kon[mant-ATP]+koff yielded a value of 6.8 x 104 M-1s-1 for kon.
(§11) (D) Dissociation of mant nucleotides from MipZ. In order to determine the dissociation rate constants (koff), we monitored the displacement of mant-labeled nucleotides from MipZ by an excess of unlabeled nucleotide. All transients obtained could be fitted to single-exponential functions. Shown is a typical curve representing the change in mant fluorescence upon dissociation of mant-ATP (30 µM) from MipZ (1 µM) in the presence of 2 mM ATP. […]
(§12) […]
(§13) (Murshudov et al. 1997) for apo-MipZ in crystal form 2. Transient kinetic analysis The structure of apo-MipZ in crystal form 1 was solved Transient kinetic experiments were conducted at 30°C by multiple-wavelength anomalous diffraction (MAD), in a Hi-Tech Scientific SF-61MX stopped-flow spectro- […]

MipZ-D42A [1] = experiment: Transient kinetic analysis of mant nucleotide binding to MipZ D42A; set-up: species or system Caulobacter crescentus; conditions: for Kd: calculated KD = koff/kon
Excerpt: as §1, §2, §3, §4, §5, §6, §7, §8, §9, §10, §11, §12, §13

MipZ [2] = experiment: Transient kinetic (stopped-flow) analysis of mant nucleotide binding to wild-type MipZ; set-up: species or system Caulobacter crescentus; conditions: for kon: 30°C, buffer P; for Kd: calculated KD = koff/kon; for koff: displacement by excess unlabeled nucleotide
Excerpt: as §1, §2, §3, §4, §5, §6, §7, §8, §9, §10, §11, §12, §13

MipZ G14V = experiment: Transient kinetic analysis of mant nucleotide binding to MipZ G14V; set-up: species or system Caulobacter crescentus; conditions: for Kd: calculated KD = koff/kon
Excerpt: as §1, §2, §3, §4, §5, §6, §7, §8, §9, §10, §11, §12, §13

MipZ-K18Q = experiment: Transient kinetic analysis of mant nucleotide binding to MipZ K18Q; set-up: species or system Caulobacter crescentus
Excerpt: as §1, §2, §3
(B) Association of MipZ with mant nucleotides. […]
as §6
Shown is a typical curve representing the change in mant fluorescence upon binding of mant-ATP (30 µM) to MipZ (1 µM). […]
determining the second-order rate constant of the association reaction. Shown is a representative graph in which the kobs values measured for mant-ATP were plotted against the corresponding mant-ATP concentrations. […]
as §11, with “All transients obtained could be fitted to single-exponential functions.” left out

[3] = molecular target: the molecule itself; experiment: SPR; ATP; printed as 0.83 min-1
[4] = molecular target: the molecule itself; experiment: SPR; 1 mM ATPγS (printed 0.18 min-1)
[5] = molecular target: the molecule itself; experiment: SPR; 1 mM ATP (printed 0.83 min-1)
[6] = molecular target: the molecule itself; experiment: SPR; ATP; printed as 0.067 min-1
[7] = molecular target: the molecule itself; experiment: SPR; 1 mM ATP (printed 0.067 min-1)
MipZ [8] = molecular target: T1, MipZ (Caulobacter crescentus, UniProt Q9A6C9 1-278); experiment: SPR; 2 mM ATP, Mg2+; koff 1.5 min-1 (Fig S5C); SPR: buffer P2 or buffer BC (Mg2+-containing) with 2 mM nucleotide, composition not in material; EMSA: 1.25 mM nucleotide, 270 nM-5.6 uM protein, room temperature; conditions: protein: recombinant; chain copies: 2; label: biotin (immobilized); blunt
T1 sequence: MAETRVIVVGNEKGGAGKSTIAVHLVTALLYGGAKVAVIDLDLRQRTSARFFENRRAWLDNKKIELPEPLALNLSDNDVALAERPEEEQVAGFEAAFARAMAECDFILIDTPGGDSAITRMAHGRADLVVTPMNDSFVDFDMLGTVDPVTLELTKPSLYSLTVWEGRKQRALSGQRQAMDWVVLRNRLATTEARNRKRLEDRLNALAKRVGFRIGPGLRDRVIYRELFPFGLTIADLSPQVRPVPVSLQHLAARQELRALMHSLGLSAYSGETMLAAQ

MipZ-D42A [9] = molecular target: T2, MipZ-D42A (Caulobacter crescentus, UniProt Q9A6C9 1-278, D42A); experiment: SPR; ATP; slower dissociation than WT; SPR: buffer P2 or buffer BC (Mg2+-containing) with 2 mM nucleotide, composition not in material; EMSA: 1.25 mM nucleotide, 270 nM-5.6 uM protein, room temperature; conditions: protein: recombinant; chain copies: 2; label: biotin (immobilized); blunt
T2 sequence: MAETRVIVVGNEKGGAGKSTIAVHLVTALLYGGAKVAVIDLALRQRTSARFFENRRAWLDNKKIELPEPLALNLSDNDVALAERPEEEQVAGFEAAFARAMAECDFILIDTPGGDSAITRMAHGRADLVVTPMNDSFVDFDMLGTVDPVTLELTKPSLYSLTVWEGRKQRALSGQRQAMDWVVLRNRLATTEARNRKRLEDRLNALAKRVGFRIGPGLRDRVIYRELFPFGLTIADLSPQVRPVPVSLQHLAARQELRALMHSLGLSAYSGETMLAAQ

ParB = molecular target: T3, ParB (Caulobacter crescentus, UniProt B8GW30 1-304); experiment: SPR; ParB alone; SPR: buffer P2 or buffer BC (Mg2+-containing) with 2 mM nucleotide, composition not in material; EMSA: 1.25 mM nucleotide, 270 nM-5.6 uM protein, room temperature; conditions: protein: recombinant; tags: none (native ParB); chain copies: 2; label: biotin (immobilized); blunt
T3 sequence: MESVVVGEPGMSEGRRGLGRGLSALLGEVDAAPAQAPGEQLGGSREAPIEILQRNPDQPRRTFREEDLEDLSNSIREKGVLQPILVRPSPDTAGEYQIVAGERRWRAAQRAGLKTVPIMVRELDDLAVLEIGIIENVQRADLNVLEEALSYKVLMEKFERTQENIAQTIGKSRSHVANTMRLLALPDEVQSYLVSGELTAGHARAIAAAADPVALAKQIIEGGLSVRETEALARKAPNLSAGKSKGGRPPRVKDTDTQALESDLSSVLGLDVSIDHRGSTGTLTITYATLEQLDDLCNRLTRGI

MipZ-D42A [10] = molecular target: T2, MipZ-D42A; experiment: SPR; ATP; SPR: buffer P2 or buffer BC (Mg2+-containing) with 2 mM nucleotide, composition not in material; EMSA: 1.25 mM nucleotide, 270 nM-5.6 uM protein, room temperature; conditions: protein: recombinant; chain copies: 2; label: biotin; blunt
MipZ [11] = molecular target: T1, MipZ; experiment: as above; conditions: protein: recombinant; chain copies: 2; label: biotin; blunt

With `CNc1ccccc1C(=O)O[C@H]1[C@@H](O)[C@H](n2cnc3c(N)ncnc32)O[C@@H]1COP(=O)(O)OP(=O)(O)O` [mant-ADP] as the molecule, how does the koff (MipZ K13A) read?
Its koff is 3.5 s⁻¹.

What about the kon (MipZ K13A) of the same molecule?
The kon was 86000 M⁻¹ s⁻¹.

What about the Kd (MipZ K13A) of the same molecule?
The Kd was 41 µM.

What about the koff (MipZ-D42A [1]) of the same molecule?
The koff was 3.8 s⁻¹.

What about the kon (MipZ-D42A [1]) of the same molecule?
Its kon is 55000 M⁻¹ s⁻¹.

And the Kd (MipZ-D42A [1])?
Its Kd is 69 µM.

What about the “average lifetime (τ = 1/koff) of the MipZ⋅nucleotide complex” value (MipZ [2]; WT MipZ) of the same molecule?
The value was “about 0.3 s”.

And the kon (MipZ [2]; WT MipZ)?
The kon was 118000 M⁻¹ s⁻¹.

What about the Kd (MipZ [2]; WT MipZ) of the same molecule?
Its Kd is 26 µM.

What about the koff (MipZ [2]; WT MipZ) of the same molecule?
Its koff is 3.1 s⁻¹.

What about the koff (MipZ G14V) of the same molecule?
Its koff is 0.9 s⁻¹.

What about the kon (MipZ G14V) of the same molecule?
The kon was 205000 M⁻¹ s⁻¹.

And the Kd (MipZ G14V)?
The Kd was 4.5 µM.

What does the source list for `CNc1ccccc1C(=O)O[C@H]1[C@@H](O)[C@H](n2cnc3c(N)ncnc32)O[C@@H]1COP(=O)(O)OP(=O)(O)OP(=O)(O)O` [mant-ATP]?
koff (MipZ K13A): 2.1 s⁻¹; kon (MipZ K13A): 56000 M⁻¹ s⁻¹; Kd (MipZ K13A): 38 µM; koff (MipZ-D42A [1]): 4.5 s⁻¹; kon (MipZ-D42A [1]): 78000 M⁻¹ s⁻¹; Kd (MipZ-D42A [1]): 58 µM; kon (MipZ [2]; WT MipZ): 68000 M⁻¹ s⁻¹; Kd (MipZ [2]; WT MipZ): 31 µM; koff (MipZ [2]; WT MipZ): 2.1 s⁻¹; pseudo-first order rate constant (kobs) (MipZ [2]; mant-ATP 30 µM, MipZ 1 µM): 4.7 s⁻¹; koff (MipZ-K18Q): 7.5 s⁻¹; kon (MipZ-K18Q): 62000 M⁻¹ s⁻¹; Kd (MipZ-K18Q; calculated KD = koff/kon): 121 µM; koff (MipZ G14V): 0.2 s⁻¹; kon (MipZ G14V): 157000 M⁻¹ s⁻¹; Kd (MipZ G14V): 1.3 µM

B1: MipZ (wild type), hexahistidine-tagged (natural protein)
chain: MAETRVIVVGNEKGGAGKSTIAVHLVTALLYGGAKVAVIDLDLRQRTSARFFENRRAWLDNKKIELPEPLALNLSDNDVALAERPEEEQVAGFEAAFARAMAECDFILIDTPGGDSAITRMAHGRADLVVTPMNDSFVDFDMLGTVDPVTLELTKPSLYSLTVWEGRKQRALSGQRQAMDWVVLRNRLATTEARNRKRLEDRLNALAKRVGFRIGPGLRDRVIYRELFPFGLTIADLSPQVRPVPVSLQHLAARQELRALMHSLGLSAYSGETMLAAQ
How did the koff [3] turn out when B1 was run?
Its koff is 0.0138 s⁻¹.

And the koff [4]?
Its koff is 0.003 s⁻¹.

What about the koff [5] of the same molecule?
The koff was 0.0138 s⁻¹.

B2: MipZ-D42A, hexahistidine-tagged (natural protein)
chain: MAETRVIVVGNEKGGAGKSTIAVHLVTALLYGGAKVAVIDLALRQRTSARFFENRRAWLDNKKIELPEPLALNLSDNDVALAERPEEEQVAGFEAAFARAMAECDFILIDTPGGDSAITRMAHGRADLVVTPMNDSFVDFDMLGTVDPVTLELTKPSLYSLTVWEGRKQRALSGQRQAMDWVVLRNRLATTEARNRKRLEDRLNALAKRVGFRIGPGLRDRVIYRELFPFGLTIADLSPQVRPVPVSLQHLAARQELRALMHSLGLSAYSGETMLAAQ
B2 was tested. Which koff [6] did it give?
Its koff is 0.00112 s⁻¹.

And the koff [7]?
Its koff is 0.00112 s⁻¹.

B3: ran2 (dsDNA)
DNA 1: GTCGACAGAGTTCGCTAACATCGAGC
DNA 2: GCTCGATGTTAGCGAACTCTGTCGAC
Which results are given for B3?
binding result (MipZ [8]): binds; binding result (MipZ-D42A [9]): binds; binding result (ParB): no binding

B4: ran1 (dsDNA)
DNA 1: GAGGCAGACTAGATCTTCTAGTTCGG
DNA 2: CCGAACTAGAAGATCTAGTCTGCCTC
Does B4 bind (MipZ-D42A [10])?
Result: binds

Does B4 bind (MipZ [11])?
Result: binds

B5: parSWT (dsDNA)
DNA 1: GAGGCTTGTTTCACGTGAAACATCGG
DNA 2: CCGATGTTTCACGTGAAACAAGCCTC
What does the source list for B5?
binding result (MipZ-D42A [10]): binds; binding result (MipZ [11]): binds

B6: parSmt (dsDNA)
DNA 1: GAGGCTTGTTTGAGCTCAAACATCGG
DNA 2: CCGATGTTTGAGCTCAAACAAGCCTC
Does B6 bind (MipZ-D42A [10])?
Result: binds

Does B6 bind (MipZ [11])?
Result: binds
